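How tested: cells in 96-well plates exposed to compound for 48 hours at five concentrations. Definition used: TGI = concentration required for complete inhibition of growth.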
What was measured:
Test in all cases: NCI-60 cell line screen, 48 h
NCI/ADR-RES ovarian = test system: NCI/ADR-RES ovarian
HT29 colon = test system: HT29 colon
ACHN renal = test system: ACHN renal
OVCAR-4 ovarian = test system: OVCAR-4 ovarian
HS 578T breast = test system: HS 578T breast
KM12 colon = test system: KM12 colon
OVCAR-3 ovarian = test system: OVCAR-3 ovarian
TK-10 renal = test system: TK-10 renal
SK-MEL-2 melanoma = test system: SK-MEL-2 melanoma
786-0 renal = test system: 786-0 renal
SF-295 CNS = test system: SF-295 CNS
OVCAR-5 ovarian = test system: OVCAR-5 ovarian
K-562 leukemia = test system: K-562 leukemia
OVCAR-8 ovarian = test system: OVCAR-8 ovarian
RPMI-8226 leukemia = test system: RPMI-8226 leukemia
HOP-62 NSCLC = test system: HOP-62 NSCLC
MDA-MB-435 = test system: MDA-MB-435
SK-MEL-28 melanoma = test system: SK-MEL-28 melanoma
HCT-116 colon = test system: HCT-116 colon
U251 CNS = test system: U251 CNS
UO-31 renal = test system: UO-31 renal
SN12C renal = test system: SN12C renal
SK-MEL-5 melanoma = test system: SK-MEL-5 melanoma
BT-549 breast = test system: BT-549 breast
A549 NSCLC = test system: A549 NSCLC
LOX IMVI melanoma = test system: LOX IMVI melanoma
UACC-62 melanoma = test system: UACC-62 melanoma
HCC-2998 colon = test system: HCC-2998 colon
SW-620 colon = test system: SW-620 colon
MDA-MB-231 breast = test system: MDA-MB-231 breast
IGROV1 ovarian = test system: IGROV1 ovarian
NCI-H23 lung = test system: NCI-H23 lung
NCI-H226 lung = test system: NCI-H226 lung
COLO 205 colon = test system: COLO 205 colon
RXF 393 renal = test system: RXF 393 renal
DU-145 prostate = test system: DU-145 prostate
PC-3 prostate = test system: PC-3 prostate
CAKI-1 renal = test system: CAKI-1 renal
CCRF-CEM leukemia = test system: CCRF-CEM leukemia
T-47D breast = test system: T-47D breast
HCT-15 colon = test system: HCT-15 colon
MOLT-4 leukemia = test system: MOLT-4 leukemia
MCF7 breast = test system: MCF7 breast
SF-268 CNS = test system: SF-268 CNS
EKVX NSCLC = test system: EKVX NSCLC
SF-539 CNS = test system: SF-539 CNS
SNB-75 CNS = test system: SNB-75 CNS
UACC-257 melanoma = test system: UACC-257 melanoma
M14 melanoma = test system: M14 melanoma
SNB-19 CNS = test system: SNB-19 CNS
NCI-H522 lung = test system: NCI-H522 lung
A498 renal = test system: A498 renal
HOP-92 NSCLC = test system: HOP-92 NSCLC
SK-OV-3 ovarian = test system: SK-OV-3 ovarian

Measured: TGI

NC1CC(=O)c2ccccc21 (centres undefined)
> 100 µM: all assays above
